Measured values: ChEMBL document CHEMBL1201862, “PubChem BioAssay data set” (2004)
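Interpolation was linear, between the two tested concentrations surrounding the appropriate level; five concentrations were tested over 48 hours in 96-well plates. GI50: concentration for 50% inhibition of growth.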 Activity calls are given as the source filed them. Cut-off read from the data, not from the text of the source: active = GI50 up to about 1.1 µM and inactive = higher.

Columns and labels:
Test in all cases: NCI anticancer screen, dose series, 48 h
CCRF-CEM = test system: CCRF-CEM
A498 = test system: A498
HCT-116 = test system: HCT-116
SK-MEL-28 = test system: SK-MEL-28
786-0 = test system: 786-0
IGROV-1 = test system: IGROV-1
MOLT-4 = test system: MOLT-4
TK-10 = test system: TK-10
KM-20L2 = test system: KM-20L2
HT-29 = test system: HT-29
SK-MEL-5 = test system: SK-MEL-5
Malme-3M = test system: Malme-3M
NCI-H226 = test system: NCI-H226
U-251 = test system: U-251
NCI-H460 = test system: NCI-H460
K562 = test system: K562
T47D = test system: T47D
NCI/ADR-RES = test system: NCI/ADR-RES
MDA-MB-435 = test system: MDA-MB-435
MDA-MB-231 = test system: MDA-MB-231

| Compound | GI50 (CCRF-CEM) | GI50 (A498) | GI50 (HCT-116) | GI50 (SK-MEL-28) | GI50 (786-0) | GI50 (IGROV-1) | GI50 (MOLT-4) | GI50 (TK-10) | GI50 (KM-20L2) | GI50 (HT-29) | GI50 (SK-MEL-5) | GI50 (Malme-3M) | GI50 (NCI-H226) | GI50 (U-251) | GI50 (NCI-H460) | GI50 (K562) | GI50 (T47D) | GI50 (NCI/ADR-RES) | GI50 (MDA-MB-435) | GI50 (MDA-MB-231) |
| --- | --- | --- | --- | --- | --- | --- | --- | --- | --- | --- | --- | --- | --- | --- | --- | --- | --- | --- | --- | --- |
| N#C/C(=C\c1ccc(O)c(O)c1)C(=O)NC1CCC(CC2CCC(NC(=O)/C(C#N)=C/c3ccc(O)c(O)c3)CC2)CC1 (configuration not stated) | 0.293 µM (active) | 4.7 µM (inactive) | 0.233 µM (active) | 3.22 µM (inactive) | 1.27 µM (inactive) | 1.71 µM (inactive) | 0.743 µM (active) | 4.02 µM (inactive) | 1.78 µM (inactive) | 1.32 µM (inactive) | 1.93 µM (inactive) | 3.65 µM (inactive) | 4.38 µM (inactive) | 0.973 µM (active) | 0.283 µM (active) | 0.564 µM (active) |  |  |  |  |
| O/N=C\C(=N/O)Nc1ccc(Cc2ccc(NC(/C=N\O)=N/O)cc2)cc1 | 45.4 µM (inactive) | 77.4 µM (inactive) | 79.4 µM (inactive) | > 100 µM (inactive) | 58.6 µM (inactive) | 34.4 µM (inactive) | 30.8 µM (inactive) | 45.2 µM (inactive) | 44.3 µM (inactive) | 60.5 µM (inactive) | 48.3 µM (inactive) | 24.7 µM (inactive) | 18.1 µM (inactive) | 37.5 µM (inactive) | 34.8 µM (inactive) | 37.9 µM (inactive) |  |  |  |  |
| C=CC(=O)C#CC#CC/C=C\CCCCCCC | 4.9 µM (inactive) | > 20.6 µM (inactive) | > 17.6 µM (inactive) | > 20.6 µM (inactive) | > 10.1 µM (inactive) | > 6.52 µM (inactive) | 4.53 µM (inactive) | > 20.6 µM (inactive) | > 20.6 µM (inactive) | > 20.6 µM (inactive) | > 20.6 µM (inactive) | > 20.6 µM (inactive) | > 20.6 µM (inactive) | > 20.6 µM (inactive) | > 20.6 µM (inactive) | 6.82 µM (inactive) | > 20.6 µM (inactive) | > 20.6 µM (inactive) | > 20.6 µM (inactive) | > 20.6 µM (inactive) |
| CCOC(=O)CC1COc2ccc3c(c21)OCO3 (configuration not stated) | > 100 µM (inactive) | > 100 µM (inactive) | > 100 µM (inactive) | > 100 µM (inactive) | > 100 µM (inactive) | > 100 µM (inactive) | > 100 µM (inactive) | > 100 µM (inactive) | > 100 µM (inactive) | > 100 µM (inactive) | > 100 µM (inactive) | > 100 µM (inactive) | > 100 µM (inactive) | > 100 µM (inactive) | > 100 µM (inactive) | > 100 µM (inactive) |  |  |  |  |
| COC(=O)CSc1nnc(-c2ccccc2)[nH]1 | > 100 µM (inactive) | > 100 µM (inactive) | > 100 µM (inactive) | > 100 µM (inactive) | > 100 µM (inactive) | > 100 µM (inactive) | 16.4 µM (inactive) | > 100 µM (inactive) | > 100 µM (inactive) | > 100 µM (inactive) | > 100 µM (inactive) | > 100 µM (inactive) | > 100 µM (inactive) | > 100 µM (inactive) | > 100 µM (inactive) | > 100 µM (inactive) |  |  |  |  |
| COC(=O)C(CC(=O)Nc1ccc(Cl)c(Cl)c1)C(=O)C(=O)NC1C2CC3CC(C2)CC1C3 (configuration not stated) | > 100 µM (inactive) | > 100 µM (inactive) | > 100 µM (inactive) | > 100 µM (inactive) | > 100 µM (inactive) | > 100 µM (inactive) | > 100 µM (inactive) | > 100 µM (inactive) | > 100 µM (inactive) | > 100 µM (inactive) | > 100 µM (inactive) | > 100 µM (inactive) | > 100 µM (inactive) | > 100 µM (inactive) | > 100 µM (inactive) | > 100 µM (inactive) |  |  |  |  |
| CCN(CC)c1ccc(/C=C2/C[N+](C)(C)C/C(=C/c3ccc(N(CC)CC)cc3)C2=O)cc1 | 1.03 µM (active) | 12.4 µM (inactive) | 2.3 µM (inactive) | 1.82 µM (inactive) | 3.12 µM (inactive) | 2.19 µM (inactive) | 1.51 µM (inactive) | 9.84 µM (inactive) | 2.59 µM (inactive) | 1.58 µM (inactive) | 1.67 µM (inactive) | 1.95 µM (inactive) | 6.21 µM (inactive) | 2.37 µM (inactive) | 2.92 µM (inactive) | 1.01 µM (active) | 2.4 µM (inactive) | > 100 µM (inactive) | 1.67 µM (inactive) | 2.58 µM (inactive) |
| COC(=O)/C(=C/c1ccc(OC)cc1)C(C(=O)O)=C(C)C | > 100 µM (inactive) | > 100 µM (inactive) | > 100 µM (inactive) | > 100 µM (inactive) | > 100 µM (inactive) | > 100 µM (inactive) | > 100 µM (inactive) | > 100 µM (inactive) | > 100 µM (inactive) | > 100 µM (inactive) | > 100 µM (inactive) | > 100 µM (inactive) | > 100 µM (inactive) | > 100 µM (inactive) | > 100 µM (inactive) | > 100 µM (inactive) |  |  |  |  |
| CC1OC(OCC2OC(Oc3c(-c4ccc(O)cc4)oc4cc(O)cc(O)c4c3=O)C(OC3OCC(O)(CO)C3O)C(O)C2O)C(O)C(O)C1O (configuration not stated) | 25.7 µM (inactive) | > 100 µM (inactive) | 31.2 µM (inactive) | > 100 µM (inactive) | 90.8 µM (inactive) | > 100 µM (inactive) | > 100 µM (inactive) | > 100 µM (inactive) | > 100 µM (inactive) | > 100 µM (inactive) | > 100 µM (inactive) | > 100 µM (inactive) | > 100 µM (inactive) | 44.6 µM (inactive) | 66.4 µM (inactive) | 29.4 µM (inactive) |  |  |  |  |
| CC[C@]12C=CCN3CCC4(c5cc([C@@]6(C(=O)OC)CC7CN(CCc8c6[nH]c6ccccc86)CC6CCCCC67)c(OC)cc5N(C)C4[C@](O)(C(=O)OC)C1OC(C)=O)[C@@H]32 (some centres not stated) | < 0.01 µM (active) | < 0.015 µM (active) | < 0.01 µM (active) |  | < 0.01 µM (active) | < 0.01 µM (active) | < 0.01 µM (active) | 0.0643 µM (active) | < 0.01 µM (active) | < 0.01 µM (active) | < 0.01 µM (active) | < 0.01 µM (active) | < 0.01 µM (active) | < 0.01 µM (active) | < 0.01 µM (active) | < 0.01 µM (active) |  | 0.186 µM (active) | < 0.01 µM (active) | < 0.01 µM (active) |
| O=Cc1ccc(-c2cccs2)s1 | 81.8 µM (inactive) | 2.46 µM (inactive) | 39.2 µM (inactive) | > 100 µM (inactive) | > 100 µM (inactive) | 12.6 µM (inactive) | > 95.1 µM (inactive) | 3.88 µM (inactive) | 47.9 µM (inactive) | 63.5 µM (inactive) | 58.1 µM (inactive) | > 100 µM (inactive) | 1.94 µM (inactive) | 12.2 µM (inactive) | 33.5 µM (inactive) | 34.3 µM (inactive) | 46.9 µM (inactive) | 42.2 µM (inactive) | 66.2 µM (inactive) | > 80 µM (inactive) |
| C/C=C/C1=C(Cl)C(=O)[C@@H](Cl)[C@@]1(O)C(=O)OC [(+)-CRYPTOSPORIPSIN] | 0.912 µM (active) | 5.77 µM (inactive) | 2.84 µM (inactive) | 7.66 µM (inactive) | 4.94 µM (inactive) | 5.38 µM (inactive) | 3.66 µM (inactive) | 3.13 µM (inactive) | 4.68 µM (inactive) | 3.46 µM (inactive) | 5.73 µM (inactive) | 2 µM (inactive) | 10.2 µM (inactive) | 5.02 µM (inactive) | 5.09 µM (inactive) | 0.869 µM (active) |  | 2.15 µM (inactive) |  |  |
